{"source": "patent US20220221445A1", "about": "“USES OF PATIENT-DERIVED INTESTINAL ORGANOIDS FOR CELIAC DISEASE DIAGNOSIS SCREENING AND TREATMENT” (The Board of TrusteesoftheLelandStanfordJuniorUniversity, priority 2019, published 2022)", "test_system": "active CeD organoids", "experiment": "IL-15 expression and IL-15 gain-of-function in CeD organoids", "format": "cell-based, human", "conditions": "gain-of-function treatment", "from_the_text": "IL-15 loss-of-function is studied in gliadin-treated, active CeD organoids +/− IL-15 neutralization by soluble recombinant IL-15 receptor (soluble hIL15Rα, R&D #7194-IR) or anti-human IL-15 neutralizing antibody (R&D #MAB647). Endpoints include inhibition of the following gliadin-induced responses: (1) HLA-DQ2:gliadin tetramer-positive T cell abundance by FACS, (2) tetramer(+) CD4^+ T cell or tetramer(−) CD8^+ IEL activation by scRNA-seq and Nanostring digital transcript counting of FACS-sorted immune subsets and (3) inhibition of gliadin-induced epithelial apoptosis and proliferation. Gain-of-function recombinant IL-15 treatment (R&D #247-ILB) of CeD organoids enhances gliadin-induced (1) expansion of HLA-DQ2:gliadin tetramer^82-positive T cells by FACS, (2) activation of these tetramer(+) CD4^+ T cells or tetramer(−) CD8^+ IELs by scRNA-seq and FACS/Nanostring analysis of immune subsets and (3) induction of epithelial apoptosis and proliferation."}
{"substance": "recombinant IL-15: recombinant IL-15 (R&D #247-ILB)", "values": [{"measurement": "effect on gliadin-induced tetramer-positive T cell expansion, T cell activation, epithelial apoptosis and proliferation", "value": "enhances"}]}
